# Active and inactive are the calls of the source. No cut-off for these calls is given here.
# What was measured:
# [1] = Cytotoxicity against human HL60 cells; format: functional, cell-based; settings: HL-60
# [2] = test system: A549; assay: Cytotoxicity against human A549 cells; format: functional, cell-based
# [3] = Cytotoxicity against human HCT116 cells; format: functional, cell-based; settings: HCT-116
# [4] = Cytotoxicity against human MIAPaCa2 cells; format: functional, cell-based; settings: MIA PaCa-2
# [5] = test system: MCF7; assay: Cytotoxicity against human MCF7 cells; format: functional, cell-based
# [6] = Cytotoxicity against human FR2 cells; format: cell-based
# [7] = target: T1, Histone deacetylase (Homo sapiens) (UniProt Q13547+O15379+Q9UBN7+Q92769+Q9UQL6+Q8WUI4+Q9BY41+Q96DB2+P56524+Q9UKV0+Q969S8); assay: Inhibition of HDAC (unknown origin) at 50 uM; format: protein assay
# [8] = target: T1, Histone deacetylase (Homo sapiens); assay: Inhibition of HDAC (unknown origin) at 30 uM; format: protein assay
# [9] = target: Histone deacetylase; assay: Inhibition of HDAC (unknown origin); format: protein assay, Homo sapiens
# [10] = Cell cycle arrest in human HL60 cells assessed as accumulation at sub-G1 phase at 1 uM by propidium iodide staining-based flow cytometry (reference value: 2.1%); format: functional; settings: HL-60
# [11] = Cell cycle arrest in human HL60 cells assessed as accumulation at G1 phase at 1 uM by propidium iodide staining-based flow cytometry (reference value: 58.9%); format: functional; settings: HL-60
# [12] = Cell cycle arrest in human HL60 cells assessed as accumulation at S phase at 1 uM by propidium iodide staining-based flow cytometry (reference value: 17.3%); format: functional; settings: HL-60
# [13] = Cell cycle arrest in human HL60 cells assessed as accumulation at G2/M phase at 1 uM by propidium iodide staining-based flow cytometry (reference value: 21.3%); format: functional; settings: HL-60
# [14] = test system: HL-60; assay: Induction of apoptosis in human HL60 cells assessed as loss of mitochondrial membrane potential in P5 quadrant at 1 uM by Rhodamine123 assay (reference value: 3.4%); format: functional
# [15] = test system: HL-60; assay: Induction of apoptosis in human HL60 cells assessed as loss of mitochondrial membrane potential in P4 quadrant at 1 uM by Rhodamine123 assay (reference value: 96.6%); format: functional
# [16] = target: T1, Histone deacetylase (Homo sapiens); assay: Inhibition of HDAC (unknown origin) at 20 uM; format: protein assay
# [17] = target: T1, Histone deacetylase (Homo sapiens); assay: Inhibition of HDAC (unknown origin) at 10 uM; format: protein assay
# [18] = target: T1, Histone deacetylase (Homo sapiens); assay: Inhibition of HDAC (unknown origin) at 1 uM; format: protein assay
# [19] = Cell cycle arrest in human HL60 cells assessed as accumulation at sub-G1 phase at 5 uM by propidium iodide staining-based flow cytometry (reference value: 2.1%); format: functional; settings: HL-60
# [20] = Cell cycle arrest in human HL60 cells assessed as accumulation at G1 phase at 5 uM by propidium iodide staining-based flow cytometry (reference value: 58.9%); format: functional; settings: HL-60
# [21] = Cell cycle arrest in human HL60 cells assessed as accumulation at S phase at 5 uM by propidium iodide staining-based flow cytometry (reference value: 17.3%); format: functional; settings: HL-60
# [22] = Cell cycle arrest in human HL60 cells assessed as accumulation at G2/M phase at 5 uM by propidium iodide staining-based flow cytometry (reference value: 21.3%); format: functional; settings: HL-60
# [23] = Cell cycle arrest in human HL60 cells at 5 to 10 uM by propidium iodide staining-based flow cytometry; format: functional; settings: HL-60
# [24] = test system: HL-60; assay: Induction of apoptosis in human HL60 cells assessed as loss of mitochondrial membrane potential in P5 quadrant at 5 uM by Rhodamine123 assay (reference value: 3.4%); format: functional
# [25] = test system: HL-60; assay: Induction of apoptosis in human HL60 cells assessed as loss of mitochondrial membrane potential in P4 quadrant at 5 uM by Rhodamine123 assay (reference value: 96.6%); format: functional
SMILES,inhibition [7] [%],inhibition [8] [%],IC50 [9] [µM],IC50 [1] [µM],IC50 [2] [µM],IC50 [3] [µM],IC50 [4] [µM],IC50 [5] [µM],IC50 [6] [µM],Activity [10] [%],Activity [11] [%],Activity [12] [%],Activity [13] [%],Activity [14] [%],Activity [15] [%],further results
C[C@H]1[C@H](C)CC[C@]2(C)CC[C@]3(C)C(=CC[C@@H]4[C@@]5(C)CC[C@@H](O)[C@](C)(NC(=O)CCCCCCCC(=O)NO)[C@@H]5CC[C@]43C)[C@H]12,45,34,> 50,12.4,15,11.8,11.9,6.4,> 20,–,–,–,–,–,–,–
O=C(CCCCCCC(=O)Nc1ccccc1)NO [VORINOSTAT],–,–,–,–,–,–,–,–,–,2.8,65.3,14,17.1,4,96,–
C[C@H]1[C@H](C)CC[C@]2(C)CC[C@]3(C)C(=CC[C@@H]4[C@@]5(C)CC[C@@H](O)[C@](C)(NC(=O)CCCCCCC(=O)NO)[C@@H]5CC[C@]43C)[C@H]12,56,50,30,> 20,> 20,> 20,> 20,> 20,> 20,7.4,57.8,16.8,16.8,3.2,96.8,Activity [19]: 4.5%; Activity [20]: 60.6%; Activity [21]: 15.7%; Activity [22]: 18.6%; Activity [24]: 29.8%; Activity [25]: 70.2%

# More lines, main results first:
inhibition [7] [%],inhibition [8] [%],IC50 [9] [µM],SMILES,IC50 [1] [µM],IC50 [2] [µM],IC50 [3] [µM],IC50 [4] [µM],IC50 [5] [µM],IC50 [6] [µM],Activity [10] [%],Activity [11] [%],Activity [12] [%],Activity [13] [%],Activity [14] [%],Activity [15] [%],further results
39,12,> 50,C[C@H]1[C@H](C)CC[C@]2(C)CC[C@]3(C)C(=CC(=O)[C@@H]4[C@@]5(C)CC[C@@H](O)[C@](C)(NC(=O)CCCCCCC(=O)NO)[C@@H]5CC[C@]43C)[C@H]12,3,6.9,5.2,8.7,4,4.3,–,–,–,–,–,–,–
57,37,42,C[C@H]1[C@H](C)CC[C@]2(C)CC[C@]3(C)C(=CC(=O)[C@@H]4[C@@]5(C)CC[C@@H](O)[C@](C)(NC(=O)CCCCC(=O)NO)[C@@H]5CC[C@]43C)[C@H]12,6.6,3.1,> 20,13.1,> 20,7.2,–,–,–,–,–,–,–
88,86,6,C[C@H]1[C@H](C)CC[C@]2(C)CC[C@]3(C)C(=CC(=O)[C@@H]4[C@@]5(C)CC[C@@H](O)[C@](C)(NC(=O)CCCC(=O)NO)[C@@H]5CC[C@]43C)[C@H]12,1.6,13,15.1,15.1,7.1,1.9,6.1,74.5,8,10.7,6.7,93.3,inhibition [16]: 70%; inhibition [17]: 65%; inhibition [18]: 23%; Activity [19]: 92.2%; Activity [20]: 7.2%; Activity [21]: 0.7%; Activity [22]: 7.1%; Activity [23]: Active; Activity [24]: 96.4%; Activity [25]: 3.6%
54,46,34,C[C@H]1[C@H](C)CC[C@]2(C)CC[C@]3(C)C(=CC[C@@H]4[C@@]5(C)CC[C@@H](O)[C@](C)(NC(=O)CCCC(=O)NO)[C@@H]5CC[C@]43C)[C@H]12,11.7,> 20,> 20,8.8,3.6,> 20,–,–,–,–,–,–,–

# From ChEMBL document CHEMBL3351412, “Design, synthesis and biological evaluation of β-boswellic acid based HDAC inhibitors as inducers of cancer cell death” (Bioorg Med Chem Lett, 2014)
